Patent US20040208864A1, “Methods of improving health-related quality of life in individuals with systemic lupus erythematosus” (priority 2002, published 2004)
Entries after “also recorded” stand apart in the source; their conditions may differ.

Tests used:
anti-dsDNA antibodies = assay: Anti-dsDNA antibody levels (Farr assay), Phase II/III study; type: in vivo, human; details: for Frequency of patients with sustained reductions in anti-dsDNA antibodies compared with placebo: Phase II/III (90-05), sustained = at least 10% below baseline for at least 2/3 of values
Description: (§1) Two studies (Phase II/III or 90-05, and Phase III or 90-09) were conducted as described in Examples 1-2 and 12. […] Patients completed the SF-36® assessment at entry, followed by three additional time points in the trial depending on how long they participated. […] The Phase II/III trial enrolled 198 lupus patients with high-affinity antibodies who were treated for up to 18 months.
Patients selection, duration of treatment, assay type were in these studies are further detailed in Table 5. All laboratory values were determined at a central laboratory. Baseline anti-dsDNA antibody levels were calculated as the mean of the last 2 determinations prior to initial administration of the study drug. Baseline values for all other laboratory measures were determined immediately before administration of the study drug. The upper limit of normal for the anti-dsDNA antibody assay at the central laboratory was 5 IU/ml.
(Sustained reduction of 10% was based on the percent coefficient of variation of the Farr assay as reported in the assay labeling. At least ⅔ of observations were required to meet this criterion to assure the majority of values were represented for a patient.) All anti-dsDNA antibody values collected were used to determine if a patient met the criterion for sustained reduction. Anti-dsDNA antibody values subsequent to HDCC were considered treatment failures and these values were imputed to have a value equivalent to baseline.

B cells = details: rats; cited from earlier work
anti-dsDNA = details: murine models of SLE; cited from earlier work
SLE patients [1] = assay: SF-36 health-related quality of life, Phase III (90-09) trial of LJP 394 vs placebo; type: in vivo, human; details: for Longitudinal differences in HRQOL (SF-36 domain scores) drug-treated vs placebo-treated: various time points, all patients
Description: Patients were treated with weekly doses of 100 mg of LJP 394 or with placebo. Patients were also permitted to receive certain other treatments including some but not all immunosuppressive drugs using a definition similar to Example 2. This randomized, double-blind, placebo-controlled study was conducted at more than 70 major medical centers in North America and Europe. Patients could remain in the study for up to 92 weeks.
The prospectively defined analysis groups were the intent-to-treat population and patients with impaired renal function. The intent-to-treat population was defined as patients with high-affinity antibodies to LJP 394. The patients with high-affinity antibodies to LJP 394 were those with a Kd′<0.8 mg/ml. Patients with impaired renal function were defined as having a serum creatinine level of 1.5 mg/dL to 3.5 mg/dL at baseline. In general, patients with impaired renal function are at greater risk of progressing to renal flare, kidney failure, and dialysis.
Complement changes were evaluated by determining the mean change from baseline in the complement protein C3 that indicates overall complement consumption due to active inflammation. Antibody changes were evaluated by determining the mean percent change of antibodies to dsDNA from baseline. Patients' assessments of disease activity and health-related quality of life were measured on a regular basis as well as at the time of, and 30 days following, a documented renal flare.
as §1
As described above in the detailed description of the invention, HRQOL is an assessment of a patient's sense of physical and mental well-being or how they feel. In the Phase II/III and Phase III studies, HRQOL was measured by a standard scoring instrument called the Medical Outcomes Study 36-Item Short Form (SF-36′). The SF-36® Health Survey is a standardized tool used in clinical research to measure a patient's assessment of quality of life outcomes related to disease and disease treatment. The Survey asked 36 questions related to how well a patient can perform day-to-day activities and how they feel emotionally. The answers were then reported as scores in eight domains. These domains are physical functioning, role-physical, bodily pain, general health, vitality, social functioning, role-emotional and mental health. SF-36@ was measured in both Phase III and II/III.

SLE patients [2] = assay: Documented renal flares, Phase II/III study; type: in vivo, human
Description: The primary endpoint was the time to a documented renal flare, defined as reproducible increases from baseline in 24-hr proteinuria or serum creatinine >20% or at least 0.3 mg/dL, whichever was greater, accompanied by proteinuria, hematuria and/or red cell casts; or new onset or reproducible increase in hematuria accompanied by either an increase in 24-hr proteinuria or new red cell casts. Secondary outcome measures included the number of renal flares, time to institution of therapy with high dose corticosteroids (HDCC) and/or cyclophosphamide, incidence of treatment with HDCC and/or cyclophosphamide, and number of major SLE flares. HDCC was defined as an increase in oral, intravenous or intramuscular prednisone (or prednisone equivalent) greater than or equal to 15 mg per day from baseline to a dose greater than 20 mg per day for more than two days or any dose exceeding 200 mg in a single day. Topical, intra-articular, intra-lesional, or intra-ocular corticosteroid administration was excluded.
(§2) The incidences of renal flares in patients of both sustained reduction group and the other group were documented and the results are shown in Table 7 for Phase III and Table 8 for Phase II/III.

SLE patients [3] = assay: Documented renal flares, Phase III study; type: in vivo, human
Description: The primary endpoint was time to renal flare. A renal flare was defined as a significant, reproducible increase in serum creatinine, urine protein or blood in the urine as described in Example 2. The secondary endpoint was time to treatment with HDCC. HDCC was defined as any dose of cyclophosphamide or an increase in prednisone of 15 mg/day or higher resulting in a final dose greater than 20 mg/day.
as §2

Substance: abetimus sodium (sense GTGTGTGTGTGTGTGTGTGT; antisense CACACACACACACACACACA; sense: DNA, backbone not given here; antisense: DNA, backbone and methylation of C not given here; four deoxynucleotide duplexes bound to triethylene glycol valency platform) [LJP 394, tetravalent conjugate: four (CA)10.(TG)10 double-stranded 20-mer oligonucleotides on a triethylene glycol based valency platform]
- # Patients with sustained reduction (anti-dsDNA antibodies; Phase II/III): 54
- # Patients, Other (no sustained reduction) (anti-dsDNA antibodies; Phase II/III): 38
- Frequency of patients with sustained reductions in anti-dsDNA antibodies compared with placebo (anti-dsDNA antibodies): higher frequency; also recorded: more frequent
- Frequency of patients with sustained reductions in anti-dsDNA antibodies compared with placebo (anti-dsDNA antibodies; listed as LJP394): Four times as many
- Change in anti-dsDNA antibodies from baseline compared with placebo (anti-dsDNA antibodies; Phase II/III, p<0.0001): statistically significant decrease
- Induction of antigen-specific B-cell tolerance (B cells): induce antigen-specific B-cell tolerance
- Effect on anti-dsDNA titers (anti-dsDNA): selectively reduces anti-dsDNA titers
- Mean SF-36 domain scores after renal flare compared with placebo (SLE patients [1]; after renal flare): remained better than placebo patients; also recorded: remained better than placebo patients'
- Mean SF-36 domain scores before renal flare compared with placebo (SLE patients [1]; before renal flare): improved HRQOL scores before the renal flare compared with placebo; also recorded: higher for LJP394 treated patients in all domains
- SF-36 domain score changes pre/post renal flare compared with placebo (SLE patients [1]; pre vs post renal flare): seven of eight domains; also recorded: better HRQOL compared with Placebo patients in all domains except physical functioning
- Longitudinal differences in HRQOL (SF-36 domain scores) drug-treated vs placebo-treated (SLE patients [1]): not significantly different
- Longitudinal differences in HRQOL (SF-36 domain scores) drug-treated vs placebo-treated (SLE patients [1]; listed as Riquent™): No substantive differences
- # Renal flares in Other patients (SLE patients [2]; Phase II/III): 6
- # Renal flares in patients with sustained reduction (SLE patients [2]; Phase II/III): 1
- Time to and number of renal flares compared with placebo (SLE patients [2]; high affinity population): significant reduction
- Time to renal flare between treatment groups (SLE patients [2]; intent-to-treat population, interim analysis): unlikely to reach statistical significance
- # Renal flares in Other patients (SLE patients [3]): 14
- # Renal flares in patients with sustained reduction (SLE patients [3]): 3
